Structures are written as SMILES.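 Following 48 hours of exposure in 96-well plates, responses at five concentrations were used to interpolate endpoints linearly. GI50 is the concentration that inhibits growth by half. At the TGI there is no net growth.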 A value given as a limit tells only on which side of the number the result lay.

GI50 and TGI data for seven molecules are collected here from PubChem BioAssay (NCI).

What all share (assay): inhibition of tumour cell growth, NCI panel, 48 h
For assay [1], the system named is 786-0 renal.
The test system of assay [2] is CAKI-1 renal.
Assay [3] relates to EKVX NSCLC.
Assay [4] deals with HOP-62 NSCLC.
In assay [5] the test system is LOX IMVI melanoma.
Assay [6] has as its system MALME-3M melanoma.
Assay [7] deals with SF-268 CNS.
Assay [8] has as its system SK-MEL-5 melanoma.
Assay [9] concerns SK-OV-3 ovarian.
Assay [10] concerns UACC-257 melanoma.

Take `COC(=O)Nc1nc2ccc(S(=O)c3ccccc3)cc2[nH]1` (stereo unspecified): the GI50 was 5200 nM in [1]; 4990 nM in assay [2]; 35 µM in [3]; 3.64 µM in assay [4]; 5.96 µM in [5]; 5.21 µM in [6]. For the same molecule, the GI50 in [7] was greater than 100 µM; in assay [8] it was 2830 nM; in assay [9] it was 3.23 µM; in assay [10] it was greater than 100 µM. Moreover, the TGI in [1], in [2], in assay [3], in assay [4], in [5] and in assay [6] was greater than 100 µM each time. Besides, the TGI in assay [7] was greater than 100 µM; in assay [8], greater than 100 µM; in assay [9] it was 12.4 µM; in [10], greater than 100 µM.

Take `CCOc1ccccc1-n1c(CN2CCN(C(=O)COc3ccc(CNCCCCCCN4C5CCCC4CC(OC(=O)Nc4cc(C)ccc4OC)C5)cc3)CC2)nc2ccccc2c1=O` (stereo unspecified): the GI50 in [1] was 1580 nM; in [2] it was 1630 nM; in [3], 1.67 µM; in [4] it was 1.7 µM; in [5], 0.582 µM; in [6], 1.7 µM. Moreover, the GI50 in [7] is 1.44 µM; in assay [8] it was 1520 nM; in [9], 1.89 µM; in [10], 1.88 µM. The TGI in assay [1] came to 3.09 µM; in assay [2], 3.06 µM; in assay [3] it was 3.33 µM; in [4] it was 3.25 µM; in assay [5], 1.08 µM; in assay [6], 3.21 µM. The TGI in [7] came to 2.99 µM; in [8] it was 2.92 µM; in assay [9] it was 3.45 µM; in [10], 3.45 µM.

As to `CSc1ccccc1C#C/C=C\C#Cc1ccccc1N1CCCC1=O`, the GI50 in [1] was greater than 22000 nM; in assay [2], greater than 10300 nM; in assay [3] it was greater than 10.3 µM; in assay [4], greater than 15.8 µM; in assay [7], greater than 10.2 µM; in assay [10] it was greater than 12.5 µM. Also, the TGI in assay [1], in [2], in assay [3], in [4], in assay [5] and in assay [6] was greater than 50 µM each time. Besides, the TGI in assay [7] is greater than 50 µM; in assay [8], greater than 18.3 µM; in assay [9], greater than 50 µM; in assay [10], greater than 50 µM.

In the case of `O=C(Nc1ccc(I)cc1)c1cc([N+](=O)[O-])ccc1O`, the GI50 in assay [1] was 6400 nM; in [2] it was 5390 nM; in assay [3], 6.72 µM; in [4], 16.4 µM; in assay [5], 4.44 µM; in [6] it was 19.9 µM. In addition, the GI50 in assay [7] was 7.03 µM; in assay [8], 3630 nM; in assay [9], 6.15 µM; in assay [10], 6.89 µM. Also, the TGI in assay [1] was greater than 100 µM; in assay [2], greater than 100 µM; in [3], greater than 100 µM; in [4], greater than 100 µM; in assay [5], 61 µM; in [6] it was 70.3 µM. Further, the TGI is greater than 100 µM in [7], 18.6 µM in assay [8], greater than 100 µM in assay [9] and 34.6 µM in assay [10].

Regarding `CN(C)c1ccc(-c2cc(-c3ccc(Nc4nc(Nc5ccc(Cl)cc5)nc(Nc5ccc(Cl)cc5)n4)cc3)no2)cc1`, the GI50 is 1510 nM in assay [1]; 2800 nM in assay [2]; 10.5 µM in assay [3]; 4.8 µM in assay [4]; 4.22 µM in assay [5]; 13 µM in assay [6]. Moreover, the GI50 in assay [7] was 5.02 µM; in assay [8] it was 2070 nM; in [9], 20 µM; in [10] it was 9.28 µM. In addition, the TGI in [1] was 3.66 µM; in assay [2] it was greater than 100 µM; in assay [3], greater than 100 µM; in assay [4], 24.1 µM; in assay [5], 35.6 µM; in [6], 36.9 µM. In addition, the TGI in assay [7] was 21.6 µM; in assay [8], 9.07 µM; in assay [9] it was 67 µM; in [10], 68.3 µM.

`CNC(=O)c1ccccc1Nc1nc(Nc2ccc(N3CCOCC3)cc2OC)ncc1Cl`: the GI50 in assay [1] is 1030 nM; in assay [2] it was 165 nM; in assay [3] it was 0.274 µM; in [4], 0.341 µM; in [5], 0.401 µM; in assay [6], 0.405 µM. In addition, the GI50 was 1.57 µM in assay [7], 1680 nM in assay [8], 0.543 µM in [9] and 0.421 µM in [10]. Also, the TGI in assay [1] is greater than 35.1 µM; in assay [2], 1.58 µM; in [3] it was greater than 24.7 µM; in assay [4] it was 9.07 µM; in assay [5], 3.17 µM; in assay [6], 16.9 µM. In addition, the TGI in assay [7] is greater than 100 µM; in assay [8], greater than 37.8 µM; in assay [9], 3.7 µM; in assay [10], greater than 100 µM.

On to `Fc1ccc(Nc2ncnc3ccc(-c4cnc5[nH]ccc5c4)cc23)cc1Cl`, for which the GI50 in assay [1] is 1570 nM; in assay [2] it was 502 nM; in assay [3], 0.769 µM; in [4] it was 3.54 µM; in [5], 3.95 µM; in assay [6], 2.05 µM. Besides, the GI50 in [7] is 3.47 µM; in assay [8] it was 6880 nM; in assay [9], 4.62 µM; in assay [10] it was 13.5 µM. Besides, the TGI was 3.27 µM in assay [1]; 19.5 µM in [2]; greater than 100 µM in assay [3]; 15.6 µM in assay [4]; greater than 29.4 µM in assay [5]; 7.84 µM in assay [6]. The TGI in assay [7] is greater than 73.4 µM; in assay [8], 40.3 µM; in assay [9] it was 32.6 µM; in assay [10], greater than 100 µM.
